{"source": "patent US20170304388A1", "about": "“NEW INDICATION OF CARDIOVASCULAR DRUGS FOR PREPARATION OF CANCER INHIBITION PHARMACEUTICAL COMPOSITION” (LAUNX BIOMEDICAL CO., LTD., priority 2014, published 2017)", "test_system": "cancer cell lines", "test": "Growth inhibitory effects on the panel of cancer cell lines", "format": "cell-based", "details": "drug 10 μM, 72 hours, WST-1", "note": "Structures can show the parent of a compound that is named as a salt.", "data": [{"molecule": "CCNC(=O)CCC/C=C\\C[C@@H]1[C@@H](/C=C/[C@@H](O)CCc2ccccc2)[C@H](O)C[C@@H]1O", "note": "[Bimatoprost]", "values": [{"measurement": "inhibition effect on different cancer cell lines (in words)", "value": "significant inhibition effect"}]}, {"molecule": "COc1ccc(-n2nc(C(N)=O)c3c2C(=O)N(c2ccc(N4CCCCC4=O)cc2)CC3)cc1", "note": "[Apixaban]", "values": [{"measurement": "inhibition effect on different cancer cell lines (in words)", "value": "significant inhibition effect"}]}, {"molecule": "C[C@@H](CN1CC(=O)NC(=O)C1)N1CC(=O)NC(=O)C1", "note": "[Dexrazoxane Hydrochloride]", "values": [{"measurement": "inhibition effect on different cancer cell lines (in words)", "value": "significant inhibition effect"}]}, {"molecule": "CCCCc1ncc(/C=C(\\Cc2cccs2)C(=O)O)n1Cc1ccc(C(=O)O)cc1", "note": "[Eprosartan Mesylate]", "values": [{"measurement": "inhibition effect on different cancer cell lines (in words)", "value": "significant inhibition effect"}]}, {"molecule": "CC(N/C(=N\\C#N)Nc1ccncc1)C(C)(C)C", "note": "(centres unmarked) [Pinacidil]", "values": [{"measurement": "inhibition effect on different cancer cell lines (in words)", "value": "significant inhibition effect"}]}, {"molecule": "O=C(NCCO[N+](=O)[O-])c1cccnc1", "note": "[Nicorandil (Ikorel), Nicorandil]", "values": [{"measurement": "inhibition effect on different cancer cell lines (in words)", "value": "significant inhibition effect"}]}, {"molecule": "COC(=O)[C@H]1[C@H]2C[C@@H]3c4[nH]c5cc(OC)ccc5c4CCN3C[C@H]2C[C@@H](OC(=O)c2cc(OC)c(OC)c(OC)c2)[C@@H]1OC", "note": "[Reserpine]", "values": [{"measurement": "inhibition effect on different cancer cell lines (in words)", "value": "significant inhibition effect"}]}, {"molecule": "C[C@@H]1C(=O)O[C@H]2C[C@@]34[C@H]5C[C@@H](C(C)(C)C)[C@]36[C@@H](OC(=O)[C@@H]6O)O[C@@]4(C(=O)O5)[C@]21O", "note": "[Ginkgolide A]", "values": [{"measurement": "inhibition effect on different cancer cell lines (in words)", "value": "significant inhibition effect"}]}, {"molecule": "CNCC(O)c1ccc(O)c(O)c1", "note": "(racemic) [DL-Adrenaline]", "values": [{"measurement": "inhibition effect on different cancer cell lines (in words)", "value": "significant inhibition effect"}]}, {"molecule": "CC(=O)Oc1cc2c(s1)CCN(C(C(=O)C1CC1)c1ccccc1F)C2", "note": "(centres unmarked) [Prasugrel (Effient), Prasugrel]", "values": [{"measurement": "inhibition effect on different cancer cell lines (in words)", "value": "significant inhibition effect"}]}, {"molecule": "Cc1ccccc1N1C(=O)c2cc(S(N)(=O)=O)c(Cl)cc2NC1C", "note": "(centres unmarked) [Metolazone (Zaroxolyn), Metolazone]", "values": [{"measurement": "inhibition effect on different cancer cell lines (in words)", "value": "significant inhibition effect"}]}, {"molecule": "CCCC(CCC)C(=O)[O-].[Na+]", "note": "[Valproic acid sodium salt]", "values": [{"measurement": "inhibition effect on different cancer cell lines (in words)", "value": "significant inhibition effect"}]}, {"molecule": "CC(C)(Sc1cc(C(C)(C)C)c(O)c(C(C)(C)C)c1)Sc1cc(C(C)(C)C)c(O)c(C(C)(C)C)c1", "note": "[Probucol]", "values": [{"measurement": "inhibition effect on different cancer cell lines (in words)", "value": "significant inhibition effect"}]}, {"molecule": "CC(C)NCC(O)COc1ccc(CCOCC2CC2)cc1", "note": "(centres unmarked) [Betaxolol hydrochloride (Betoptic), Betaxolol hydrochloride]", "values": [{"measurement": "inhibition effect on different cancer cell lines (in words)", "value": "significant inhibition effect"}]}, {"molecule": "CN(Cc1cc(Br)cc(Br)c1N)C1CCCCC1", "note": "[Bromhexine HCl]", "values": [{"measurement": "inhibition effect on different cancer cell lines (in words)", "value": "significant inhibition effect"}]}, {"molecule": "CN1C(CCl)Nc2cc(Cl)c(S(N)(=O)=O)cc2S1(=O)=O", "note": "(centres unmarked) [Methyclothiazide]", "values": [{"measurement": "inhibition effect on different cancer cell lines (in words)", "value": "significant inhibition effect"}]}, {"molecule": "CCCC(=O)OCOC(=O)C1=C(C)NC(C)=C(C(=O)OC)C1c1cccc(Cl)c1Cl", "note": "(centres unmarked) [Cleviprex (Clevidipine), Clevidipine]", "values": [{"measurement": "inhibition effect on different cancer cell lines (in words)", "value": "significant inhibition effect"}]}, {"molecule": "CCOC(=O)OC(C)OC1=C(C(=O)Nc2ccccn2)N(C)S(=O)(=O)c2ccccc21", "note": "(centres unmarked) [Ampiroxicam]", "values": [{"measurement": "inhibition effect on different cancer cell lines (in words)", "value": "significant inhibition effect"}]}, {"molecule": "CCCCC(=O)N(Cc1ccc(-c2ccccc2-c2nnn[nH]2)cc1)[C@H](C(=O)O)C(C)C", "note": "[Valsartan (Diovan), Valsartan]", "values": [{"measurement": "inhibition effect on different cancer cell lines (in words)", "value": "significant inhibition effect"}]}, {"molecule": "CCOC(=O)[C@H](CCc1ccccc1)N[C@@H](C)C(=O)N1CCC[C@H]1C(=O)O", "note": "[Enalapril maleate (Vasotec), Enalapril maleate]", "values": [{"measurement": "inhibition effect on different cancer cell lines (in words)", "value": "significant inhibition effect"}]}, {"molecule": "CC(C)C[C@H](NC(=O)[C@H](CCc1ccccc1)NC(=O)CN1CCOCC1)C(=O)N[C@@H](Cc1ccccc1)C(=O)N[C@@H](CC(C)C)C(=O)[C@@]1(C)CO1", "note": "[Carfilzomib (PR-171), Carfilzomib]", "values": [{"measurement": "inhibition effect on different cancer cell lines (in words)", "value": "significant inhibition effect"}]}, {"molecule": "COc1ccc([C@@H]2Sc3ccccc3N(CCN(C)C)C(=O)[C@@H]2OC(C)=O)cc1", "note": "[Diltiazem HCl (Tiazac), Diltiazem HCl]", "values": [{"measurement": "inhibition effect on different cancer cell lines (in words)", "value": "significant inhibition effect"}]}, {"molecule": "Ibutilide fumarate", "values": [{"measurement": "inhibition effect on different cancer cell lines (in words)", "value": "significant inhibition effect"}]}, {"molecule": "CCCc1nc2c(C)cc(-c3nc4ccccc4n3C)cc2n1Cc1ccc(-c2ccccc2C(=O)O)cc1", "note": "[Telmisartan (Micardis), Telmisartan]", "values": [{"measurement": "inhibition effect on different cancer cell lines (in words)", "value": "significant inhibition effect"}]}, {"molecule": "C[C@H](N[C@@H](CCc1ccccc1)C(=O)O)C(=O)N1CCC[C@H]1C(=O)O.O.O", "note": "[Enalaprilat dehydrate]", "values": [{"measurement": "inhibition effect on different cancer cell lines (in words)", "value": "significant inhibition effect"}]}, {"molecule": "Almotriptan malate [Almotriptan malate (Axert)]", "values": [{"measurement": "inhibition effect on different cancer cell lines (in words)", "value": "significant inhibition effect"}]}, {"molecule": "Nc1ncnc2c1ncn2[C@@H]1O[C@H](CO)[C@@H](O)[C@H]1O", "note": "[Adenosine (Adenocard), Adenosine]", "values": [{"measurement": "inhibition effect on different cancer cell lines (in words)", "value": "significant inhibition effect"}]}, {"molecule": "Cc1cccc(C)c1OCC(C)N", "note": "(centres unmarked) [Mexiletine HCl]", "values": [{"measurement": "inhibition effect on different cancer cell lines (in words)", "value": "significant inhibition effect"}]}, {"molecule": "C[N+](C)(C)CC(O)CC(=O)O.[Cl-]", "note": "(racemic) [DL-Carnitine hydrochloride]", "values": [{"measurement": "inhibition effect on different cancer cell lines (in words)", "value": "significant inhibition effect"}]}, {"molecule": "CC1CNc2c(cccc2S(=O)(=O)N[C@@H](CCCNC(=N)N)C(=O)N2CC[C@@H](C)C[C@@H]2C(=O)O)C1", "note": "(some centres unmarked) [Argatroban]", "values": [{"measurement": "inhibition effect on different cancer cell lines (in words)", "value": "significant inhibition effect"}]}, {"molecule": "C[C@H](Cc1cc2c(c(C(N)=O)c1)N(CCCO)CC2)NCCOc1ccccc1OCC(F)(F)F", "note": "[Silodosin (Rapaflo), Silodosin]", "values": [{"measurement": "inhibition effect on different cancer cell lines (in words)", "value": "significant inhibition effect"}]}, {"molecule": "C[C@]12CCC(=O)C=C1C=C[C@@H]1[C@@H]2CC[C@@]2(C)[C@H]1CC[C@@]2(O)CCC(=O)O", "note": "[Potassium Canrenoate]", "values": [{"measurement": "inhibition effect on different cancer cell lines (in words)", "value": "significant inhibition effect"}]}, {"molecule": "COc1ccc(CN2CCN(C(c3ccc(F)cc3)c3ccc(F)cc3)CC2)c(OC)c1OC", "note": "[Lomerizine HCl]", "values": [{"measurement": "inhibition effect on different cancer cell lines (in words)", "value": "significant inhibition effect"}]}, {"molecule": "CCOCC(O)COc1ccc(NC(=O)CC[S+](C)C)cc1", "note": "(centres unmarked) [Suplatast tosylate]", "values": [{"measurement": "inhibition effect on different cancer cell lines (in words)", "value": "significant inhibition effect"}]}, {"molecule": "CS(=O)(=O)c1ccc([C@@H](O)[C@@H](CO)NC(=O)C(Cl)Cl)cc1", "note": "[Thiamphenicol (Thiophenicol), Thiamphenicol]", "values": [{"measurement": "inhibition effect on different cancer cell lines (in words)", "value": "significant inhibition effect"}]}, {"molecule": "COC(=O)[C@@H]1CC2=CC(=O)CC[C@]2(C)[C@@]23O[C@@H]2C[C@@]2(C)[C@@H](CC[C@@]24CCC(=O)O4)[C@H]13", "note": "[Eplerenone]", "values": [{"measurement": "inhibition effect on different cancer cell lines (in words)", "value": "significant inhibition effect"}]}, {"molecule": "NCCc1c[nH]cn1.O=P(O)(O)O", "note": "[Histamine Phosphate]", "values": [{"measurement": "inhibition effect on different cancer cell lines (in words)", "value": "significant inhibition effect"}]}, {"molecule": "CC1=NN(c2ccccc2)C(=O)C1", "note": "[Edaravone (MCI-186), Edaravone]", "values": [{"measurement": "inhibition effect on different cancer cell lines (in words)", "value": "significant inhibition effect"}]}, {"molecule": "CC(S)C(=O)NCC(=O)O", "note": "(centres unmarked) [Tiopronin (Thiola), Tiopronin]", "values": [{"measurement": "inhibition effect on different cancer cell lines (in words)", "value": "significant inhibition effect"}]}, {"molecule": "CC(Oc1c(Cl)cccc1Cl)C1=NCCN1", "note": "(centres unmarked) [Lofexidine HCl]", "values": [{"measurement": "inhibition effect on different cancer cell lines (in words)", "value": "significant inhibition effect"}]}, {"molecule": "Cc1cccc(Nc2ccncc2S(=O)(=O)NC(=O)NC(C)C)c1", "note": "[Torsemide (Demadex), Torsemide]", "values": [{"measurement": "inhibition effect on different cancer cell lines (in words)", "value": "significant inhibition effect"}]}, {"molecule": "Cc1cc2c(cc1S(N)(=O)=O)S(=O)(=O)CCC2", "note": "[Meticrane]", "values": [{"measurement": "inhibition effect on different cancer cell lines (in words)", "value": "significant inhibition effect"}]}, {"molecule": "CCCCc1oc2ccccc2c1C(=O)c1cc(I)c(OCCN(CC)CC)c(I)c1", "note": "[Amiodarone HCl]", "values": [{"measurement": "inhibition effect on different cancer cell lines (in words)", "value": "significant inhibition effect"}]}, {"molecule": "NS(=O)(=O)c1cc(Cl)c(Cl)c(S(N)(=O)=O)c1", "note": "[Dichlorphenamide (Diclofenamide), Dichlorphenamide]", "values": [{"measurement": "inhibition effect on different cancer cell lines (in words)", "value": "significant inhibition effect"}]}, {"molecule": "N[C@@H]1CCCCN(c2c(F)cc3c(=O)c(C(=O)O)cn(C4CC4)c3c2Cl)C1", "note": "[Besifloxacin HCl (Besivance), Besifloxacin HCl]", "values": [{"measurement": "inhibition effect on different cancer cell lines (in words)", "value": "significant inhibition effect"}]}, {"molecule": "COc1cc2nc(N3CCN(C(=O)C4COc5ccccc5O4)CC3)nc(N)c2cc1OC", "note": "(centres unmarked) [Doxazosin mesylate]", "values": [{"measurement": "inhibition effect on different cancer cell lines (in words)", "value": "significant inhibition effect"}]}, {"molecule": "OC[C@@H](O)[C@@H](O)[C@H](O)[C@H](O)CO", "note": "[D-Mannitol (Osmitrol), D-Mannitol]", "values": [{"measurement": "inhibition effect on different cancer cell lines (in words)", "value": "significant inhibition effect"}]}, {"molecule": "CCOC(=O)[C@H](CCc1ccccc1)N[C@H]1CCCN2CCC[C@@H](C(=O)O)N2C1=O", "note": "[Cilazapril monohydrate (Inhibace), Cilazapril monohydrate]", "values": [{"measurement": "inhibition effect on different cancer cell lines (in words)", "value": "significant inhibition effect"}]}, {"molecule": "C=CCOc1ccccc1OCC(O)CNC(C)C", "note": "(centres unmarked) [Oxprenolol HCl]", "values": [{"measurement": "inhibition effect on different cancer cell lines (in words)", "value": "significant inhibition effect"}]}, {"molecule": "CCCc1nc(C(C)(C)O)c(C(=O)OCc2oc(=O)oc2C)n1Cc1ccc(-c2ccccc2-c2nnn[nH]2)cc1", "note": "[Olmesartan medoxomil (Benicar), Olmesartan medoxomil]", "values": [{"measurement": "inhibition effect on different cancer cell lines (in words)", "value": "significant inhibition effect"}]}, {"molecule": "CCC(CC)[C@H](NC(C)=O)[C@@H]1[C@H](O)[C@@H](C(=O)O)C[C@H]1N=C(N)N.O.O.O", "note": "[Peramivir Trihydrate]", "values": [{"measurement": "inhibition effect on different cancer cell lines (in words)", "value": "significant inhibition effect"}]}, {"molecule": "COC(=O)[C@H](c1ccccc1Cl)N1CCc2sccc2C1", "note": "[Clopidogrel (Plavix), Clopidogrel]", "values": [{"measurement": "inhibition effect on different cancer cell lines (in words)", "value": "significant inhibition effect"}]}, {"molecule": "CCOC(=O)C1=C(C)NC(C)=C(C(=O)OCC)C1c1ccccc1/C=C/C(=O)OC(C)(C)C", "note": "[Lacidipine (Lacipil, Motens), Lacidipine]", "values": [{"measurement": "inhibition effect on different cancer cell lines (in words)", "value": "significant inhibition effect"}]}]}
